Residue numbers refer to the chain shown, from its start.
What was measured:
Sse1 [1] = target: T1, Sse1 (Saccharomyces cerevisiae, UniProt P32589, F439L/L433A/M441A/N434P); experiment: fluorescence polarization/anisotropy, saturation binding one-site fit
T1 sequence (P32589 2-693 L433A/N434P/F439L/M441A): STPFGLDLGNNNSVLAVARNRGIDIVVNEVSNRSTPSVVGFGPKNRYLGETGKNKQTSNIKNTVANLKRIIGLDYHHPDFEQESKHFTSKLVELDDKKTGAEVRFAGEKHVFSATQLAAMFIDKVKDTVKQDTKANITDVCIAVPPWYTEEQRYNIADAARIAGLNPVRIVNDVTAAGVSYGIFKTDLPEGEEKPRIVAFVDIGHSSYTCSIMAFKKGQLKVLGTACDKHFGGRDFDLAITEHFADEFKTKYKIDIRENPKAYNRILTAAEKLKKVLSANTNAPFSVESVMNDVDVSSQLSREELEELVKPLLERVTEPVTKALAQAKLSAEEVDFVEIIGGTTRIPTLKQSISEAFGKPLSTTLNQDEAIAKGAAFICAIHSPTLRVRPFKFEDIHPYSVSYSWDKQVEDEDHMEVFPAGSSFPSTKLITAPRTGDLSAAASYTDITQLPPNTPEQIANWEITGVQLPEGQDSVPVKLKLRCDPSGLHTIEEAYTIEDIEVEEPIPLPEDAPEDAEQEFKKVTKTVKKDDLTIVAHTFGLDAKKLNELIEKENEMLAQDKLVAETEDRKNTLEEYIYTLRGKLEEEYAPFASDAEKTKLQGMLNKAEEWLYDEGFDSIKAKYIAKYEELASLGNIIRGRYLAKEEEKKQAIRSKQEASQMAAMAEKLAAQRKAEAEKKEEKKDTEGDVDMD

Sse1 [2] = target: T2, Sse1 (Saccharomyces cerevisiae, UniProt P32589); experiment: as above
T2 sequence (P32589 2-693): T1 sequence (P32589 2-693 L433A/N434P/F439L/M441A) with A432L, P433N, L438F, A440M

- Kd (Sse1 [1]): 12.1 ± 1.9 µM
- Kd (Sse1 [2]): 8.6 ± 1.4 µM
Compound: O=C(NCCCCCCNc1ncnc2c1ncn2[C@@H]1O[C@H](COP(=O)(O)OP(=O)(O)OP(=O)(O)O)[C@@H](O)[C@H]1O)c1ccc2c(c1)C(=O)OC21c2ccc(O)cc2Oc2cc(O)ccc21 [N^6-(6-amino)hexyl-ATP-5-FAM]
